Patent publication US20240269238A1, “Therapeutic Regimens and Methods for Reducing Body Weight in a Subject with Fatty Liver Disease using a GLP-1R and GCGR Agonist” (Spitfire Pharma LLC, priority 2022, published 2024)
“Also recorded” adds a separate entry of the source.

Assays:
Format in all cases: in vivo, human
[1] = Phase 1 study NCT0456124 (Example 2): safety and tolerability; conditions: 12 weeks
[2] = system: alanine aminotransferase (ALT) and corrected T1 (cT1); test: Phase 1b 24-week NAFLD study (Example 3): liver inflammation by ALT levels and cT1 imaging; conditions: all doses, week 24
From the text: Provided herein is disclosure of a 12-week extension study of the study provided in Example 1, providing a 24-week a Phase 1b, randomized, double-blind, placebo-controlled study to assess the effects of pemvidutide (also termed herein as ALT-801), the safety of pemvidutide and effects on weight loss, hepatic fat fraction, anthropometric parameters, lipid metabolism, as well as inflammatory, fibrosis and other markers in diabetic and non-diabetic (type 2 diabetes) overweight and obese (BMI≥28.0 kg/m^2) subjects with NAFLD (defined as liver fat content (LFC) by MRI-PDFF ≥10%; absence of significant fibrosis, defined as FibroScan® LSM ≤10 kPa), alanine aminotransferase (ALT) and aspartate aminotransferase (AST) laboratory values of ≤75 IU/L and HbA1c <9.5. Men and women aged 18-65 years were studied. […]
The primary endpoint of this study was a reduction in liver fat content (LFC) by MRI-PDFF at Week 24 compared to Week 0 (zero). […] Adverse events (AEs), including serious and severe AEs, AEs leading to discontinuation, GI tolerability, vital signs, and glycemic control including fasting glucose and HbA1c levels were also measured. […]

[3] = Phase 1 12-week NAFLD study (Example 1): body weight loss; conditions: for weight loss: week 12; for placebo-adjusted weight loss: 12 weeks
From the text: Provided herein is disclosure of a Phase 1, multicenter, randomized, double-blind, placebo-controlled study to assess the effects of Pemvidutide (also termed herein as ALT-801), the safety of Pemvidutide and effects on hepatic fat fraction, anthropometric parameters, lipid metabolism, inflammatory markers and fibrosis markers in diabetic and non-diabetic (type 2 diabetes) overweight and obese (BMI 28.0 kg/m^2) subjects with NAFLD. This study was designed to assess changes in hepatic fat fraction by MRI-PDFF (magnetic resonance imaging-proton density fat fraction) in diabetic and non-diabetic overweight and obese subjects with NAFLD after 12 weeks of ALT-801 treatment. The trial was conducted without adjunctive diet and exercise interventions. The study assessed changes in body weight, lipid metabolism, metabolic markers, and inflammatory markers and safety and tolerability of ALT-801 after 12 weeks of treatment. Subjects were stratified for the presence or absence of diabetes at baseline. Fibroscan and cT1 assessments evaluated changes in liver inflammatory and fibrotic activity at the end of 12 weeks of treatment.
Overweight and obese volunteers with BMI ≥28 kg/m^2 were studied because this is the typical population of individuals with NAFLD, and these subjects are able to better tolerate the predicted Pharmacodynamics (PD) effect of weight loss and could even benefit from treatment. A hepatic fat fraction of 10% has been typical for the evaluation of hepatic fat fraction in subjects with NAFLD. In other words, individuals with a liver fat fraction of 10% or greater are typically diagnosed with NAFLD. Diabetic subjects that require insulin, sulfonylureas or DDP-4 inhibitors for control of diabetes were excluded in this study. Exclusions were instituted that might otherwise affect an accurate assessment of the effects of ALT-801 on safety or PD. The BMI upper limit is set to 45 kg/m^2 as subjects over this BMI are no likely to fit into the MRI scanner.
The study, described in this example, was carried out in 94 subjects overweight and obese (body mass index [BMI] ≥28.0 kg/m^2) Type 2 diabetic and non-diabetic subjects with nonalcoholic fatty liver disease (NAFLD) over about 4.5 months, including up to a 35-day screening period, and 85-day treatment period and a 25-day follow-up period, with treatment with ALT-801 (a composition comprising SEQ ID NO.: 1, “study medication”) or placebo administered by subcutaneous (SC) injection once weekly for up to twelve (12) doses.
The safety objective of this study was to assess the safety and tolerability of ALT-801 in 18-65 years old subjects with NAFLD (NAFLD without significant fibrosis, defined as FibroScan® controlled attenuation parameter (CAP) ≥280 dB/m and liver stiffness measurement (LSM)<10 kPa (i.e., indicating the absence of significant fibrosis), magnetic resonance imaging derived proton density fat fraction (MRI-PDFF) ≥10%), hemoglobin Alc (HbAlc) of less than 9.5%, and alanine aminotransferase (ALT) or aspartate aminotransferase (AST) values of ≤[…]. The pharmacodynamic (PD) objectives of this study were to evaluate the effects of ALT-801 on hepatic fat fraction, anthropometric parameters, lipid metabolism, metabolic markers, inflammatory markers, fibrosis markers, and lipotoxicity markers. The pharmacokinetic (PK) objectives of this study were to evaluate the effects of ALT-801 and metformin exposure (drug interactions) on the subjects (e.g., ALT-801 and metformin concentrations in blood over time).
After providing informed consent, subjects underwent a screening period of up to 35 days. Subjects were instructed on how to maintain their normal diets, alcohol consumption and physical activities and not to start any new diets, supplements, or exercise programs at any time while participating in the study. […]

CC[C@H](C)[C@H](NC(=O)[C@H](Cc1ccccc1)NC(=O)[C@H](CCC(=O)O)NC(=O)[C@@H]1CCCCNC(=O)CC[C@H](NC(=O)[C@H](CC(=O)O)NC(=O)[C@H](CC(C)C)NC(=O)[C@H](Cc2ccc(O)cc2)NC(=O)[C@H](CCCCN)NC(=O)[C@H](CO)NC(=O)[C@H](Cc2ccc(O)cc2)NC(=O)[C@H](CC(=O)O)NC(=O)[C@H](CO)NC(=O)[C@@H](NC(=O)[C@H](Cc2ccccc2)NC(=O)[C@@H](NC(=O)CNC(=O)[C@H](CCC(N)=O)NC(=O)C(C)(C)NC(=O)[C@@H](N)Cc2c[nH]cn2)[C@@H](C)O)[C@H](C)O)C(=O)N[C@@H](CCCCNC(=O)C2O[C@@H](OCCCCCCCCCCCCCCCCCC(=O)O)C(O)C(O)[C@@H]2O)C(=O)N[C@@H](C)C(=O)N[C@@H](C)C(=O)N1)C(=O)N[C@@H](CCC(N)=O)C(=O)N[C@@H](Cc1c[nH]c2ccccc12)C(=O)N[C@@H](CC(C)C)C(=O)N[C@@H](CC(C)C)C(=O)N[C@@H](CCC(N)=O)C(=O)N[C@H](C(N)=O)[C@@H](C)O (stereo partly shown) [ALT-801, Pemvidutide]
tolerability ([1]; 1.2, 1.8, 2.4 mg weekly, no dose titration): well-tolerated at all dose levels; also recorded: safe and well-tolerated | SAEs or AEs leading to treatment discontinuation [1]: no SAEs or AEs leading to treatment discontinuation were reported | severity of AEs [1]: mild or moderate severity | ALT levels [2]: robust reduction of ALT levels | cT1 response (80 ms reduction vs baseline) [2]: high rates of cT1 response | weight loss ([3]; all subjects, 1.2 mg): 3.4% | weight loss ([3]; all subjects, 1.8 mg): 4.3% | weight loss ([3]; all subjects, 2.4 mg): 3.7% | weight loss ([3]; diabetic subjects, 1.2 mg): 3.3% | weight loss ([3]; diabetic subjects, 1.8 mg): 3.8% | weight loss ([3]; diabetic subjects, 2.4 mg): 4.4% | placebo-adjusted weight loss ([3]; diabetic subjects): 4.5% | weight loss ([3]; non-diabetic subjects, 1.2 mg): 3.4% | weight loss ([3]; non-diabetic subjects, 1.8 mg): 4.9% | weight loss ([3]; non-diabetic subjects, 2.4 mg): 3.5% | placebo-adjusted weight loss ([3]; non-diabetic subjects): 4.7%
